The test system of data set [1] is HCT116 tumors. Nature of the data set: Xenograft cancer study in mice, HCT116, oral administration (Example 20d). The data set is classed as in vivo, mouse. The source says: (§1) Female Balb/C, immunologically deficient recipient mice (6-8 weeks old) had tumors implanted therein. The Balb/C donor mice were used to grow HCT116 tumors, which tumors were excised therefrom and subsequently sectioned into small fragments about 2 mm^3 in size. The Balb/C recipient mice were given brief general anesthesia and then one HCT116 2 mm^3 tumor fragment from the donor mice was implanted into each of the left and right flank of the recipient mice using a trocar needle. Once the tumors in the recipient mice had reached a measurable size of about 4×4 mm, as measured by calipers placed against each mouse skin, the recipient mice were randomly placed into treatment groups, 8 per group and the oral treatment was started. 8 mice were in the positive control group (“Cisplatin”) and 8 mice were in the negative control group and received only water (“Control”). Treatment was given exclusively via the drinking bottle shared between the mice in each Treatment group. Cisplatin was given by intraperitoneal injection on day 0. Tumor size was assessed five times per week using a pair of calipers and mouse weight was also obtained by a scale, such measuring occurring until the mouse died (or was removed from the study) or the study was terminated as scheduled.
• Species: Mice • Strain: Balb/C immunodeficient mice • Source: Harlan • Gender and number: Female, 36 • Age: About 6-8 weeks old at the start of the study. • Identification: Each mouse was given a unique identity number. • Animal husbandry: On receipt, all animals were examined for external signs of ill-health and all unhealthy animals were excluded from further evaluation. Animals were housed in groups of three under specific pathogen free (spf) conditions, in a thermostatically monitored room (22±4° C.) in an animal unit. Animals were equilibrated under standard animal house conditions for at least 72 hours prior to use. The health status of the animals was monitored throughout this period and the suitability of each animal for experimental use was assessed prior to study start. • Housing Animals were housed in groups of 3 per cage in a controlled room, to ensure correct temperature, humidity and 12 hour light/dark cycle for the duration of the study. • Diet: Irradiated pellet diet and water was available ad libitum throughout the holding, acclimatisation and post-dose periods. Compound and Reagents • HCT 116 cell line (ATCC CCL-247). • Phosphate buffered saline (“PBS”). • Test compounds: Au—Pt bi-metallic nanocrystal suspensions. • Positive control compound: cisplatin. • Negative control compound: drinking water. Treatment Groups and Dosages • Negative Control Group 1: Days 0-21, given normal drinking water. • Positive Control Group 2: Days 0-21, given normal drinking water; and given a one-time cisplatin dose of 8 mg/kg by intraperitoneal injection (“IP”) on day 0. • Treatment Group 3-5: Days 0-21, given test compounds as their drinking water. Protocol A: Preparation and Growth of Donor Tumors
(§2) a.) Preparation of Tumor Cells • 1. Cells were grown in complete medium and all contaminants were excluded. • 2. When the cells were approximately 70-80% confluent, then approximately 3-4 hours before harvesting, the old cell growth medium was replaced with fresh cell growth medium to remove any dead and/or detached cells. • 3. […] The cells were then placed on a glass slide in the traditional manner and were counted using a hemocytometer. • 5. […]

The test system of another data set is H460 tumors. Nature of the data set: Xenograft cancer study in mice, H460, oral administration (Example 20e). The data set is classed as in vivo, mouse.
Excerpt: Female Balb/C, immunologically deficient recipient mice (6-8 weeks old) had tumors implanted therein. The Balb/C donor mice were used to grow H460 tumors, which tumors were excised therefrom and subsequently sectioned into small fragments about 2 mm^3 in size. The Balb/C recipient mice were given brief general anesthesia and then one H4602 mm^3 tumor fragment from the donor mice was implanted into each of the left and right flank of the recipient mice using a trocar needle. Once the tumors in the recipient mice had reached a measurable size of about 4×4 mm, as measured by calipers placed against each mouse skin, the recipient mice were randomly placed into treatment groups, 8 per group and the oral treatment was started. 8 mice were in the positive control group (“Cisplatin”) and 8 mice were in the negative control group and received only water (“Control”). Treatment was given exclusively via the drinking bottle shared between the mice in each Treatment group. Cisplatin was given by intraperitoneal injection on day 0. Tumor size was assessed five times per week using a pair of calipers and mouse weight was also obtained by a scale, such measuring occurring until the mouse died (or was removed from the study) or the study was terminated as scheduled.
• Species: Mice • Strain: Balb/C immunodeficient mice • Source: Harlan • Gender and number: Female, 36 • Age: About 6-8 weeks old at the start of the study. • Identification: Each mouse was given a unique identity number. • Animal husbandry: On receipt, all animals were examined for external signs of ill-health and all unhealthy animals were excluded from further evaluation. Animals were housed in groups of three under specific pathogen free (spf) conditions, in a thermostatically monitored room (22±4° C.) in an animal unit. Animals were equilibrated under standard animal house conditions for at least 72 hours prior to use. The health status of the animals was monitored throughout this period and the suitability of each animal for experimental use was assessed prior to study start. • Housing Animals were housed in groups of 3 per cage in a controlled room, to ensure correct temperature, humidity and 12 hour light/dark cycle for the duration of the study. • Diet: Irradiated pellet diet and water was available ad libitum throughout the holding, acclimatisation and post-dose periods. Compound and Reagents • H460cell line (ATCC HTB-177). • Phosphate buffered saline (“PBS”). • Test compounds: Au—Pt bi-metallic nanocrystal suspensions. • Positive control compound: cisplatin. • Negative control compound: drinking water. Treatment Groups and Dosages • Negative Control Group 1: Days 0-21, given normal drinking water. • Positive Control Group 2: Days 0-21, given normal drinking water; and given a one-time cisplatin dose of 8 mg/kg by intraperitoneal injection (“IP”) on day 0. • Treatment Group 3-5: Days 0-21, given test compounds as their drinking water. Protocol A: Preparation and Growth of Donor Tumors
as §2

The subject of data set [2] is HCT116 tumors. Format: in vivo.
Excerpt: as §1
• Species: Mice • Strain: Balb/C immunodeficient mice • Source: Harlan • Gender and number: Female, 36 • Age: About 6-8 weeks old at the start of the study. • Identification: Each mouse was given a unique identity number. • Animal husbandry: On receipt, all animals were examined for external signs of ill-health and all unhealthy animals were excluded from further evaluation. Animals were housed in groups of three under specific pathogen free (spf) conditions, in a thermostatically monitored room (22±4° C.) in an animal unit. Animals were equilibrated under standard animal house conditions for at least 72 hours prior to use. The health status of the animals was monitored throughout this period and the suitability of each animal for experimental use was assessed prior to study start. • Housing Animals were housed in groups of 3 per cage in a controlled room, to ensure correct temperature, humidity and 12 hour light/dark cycle for the duration of the study. • Diet: Irradiated pellet diet and water was available ad libitum throughout the holding, acclimatisation and post-dose periods. Compound and Reagents • HCT 116 cell line (ATCC CCL-247). • Phosphate buffered saline (“PBS”). • Test compounds: gold nanocrystal suspension NE-28-10X (NE-28 produced equivalent to • NE10214 in Example 1) Concentrated 10×. • Positive control compound: cisplatin. • Negative control compound: drinking water. Treatment Groups and Dosages • Negative Control Group 1: Days 0-21, given normal drinking water. • Positive Control Group 2: Days 0-21, given normal drinking water; and given a one-time cisplatin dose of 8 mg/kg by intraperitoneal injection (“IP”) on day 0. • Treatment Group 3: Days 0-21, given test compounds as their drinking water. Protocol A: Preparation and Growth of Donor Tumors
as §2

[3] abbreviates: HCT116 xenograft, oral, versus Group 1 (Control).
The mark [4] stands for this setting: tumor doubling time, HCT116 xenograft, oral.
Where [5] appears, read: tumor doubling time, H460 xenograft, oral.

Where two headings read alike, the source gives them in different places.

Results on one molecule are retold here after patent US9387225B2, “Gold-platinum based bi-metallic nanocrystal suspensions, electrochemical manufacturing processes therefor and uses for the same” (GR INTELLECTUAL RESERVE, LLC, a Nevada LLC, priority 2011, dated 2016).

Take `N.N.[Cl][Pt][Cl]` [cisplatin]: the “Growth Delay” value with HCT116 tumors [1] (setting [3]) is listed as 1.7 days; in the data set on H460 tumors (H460 xenograft, oral, versus Group 1 (Control)) it was 2.5 days; with HCT116 tumors [2] (setting [3]), 0.9 days. Moreover, the “Maximum % Weight Loss” value in the data set on HCT116 tumors [1] (mouse, in vivo, po) was 5%; with H460 tumors (mouse, in vivo, po), 6%; with HCT116 tumors [2] (mouse, in vivo, po), 5%. The “Maximum % Weight Loss, day (d) of maximum” value is 7 days with HCT116 tumors [1] (mouse, in vivo, po); 3 days in the data set with H460 tumors (mouse, in vivo, po); 2 days in the data set with HCT116 tumors [2] (mouse, in vivo, po). The “Mean Time to RTV2” value in the data set on HCT116 tumors [1] (setting [4]) is given as 5.2 days; in the data set on H460 tumors (setting [5]), 5.0 days; in the data set on HCT116 tumors [2] (setting [4]) it was 3.9 days. In addition, the “Median Time to RTV2” value in the data set with HCT116 tumors [1] (setting [4]) is reported as 5.2 days; with H460 tumors (setting [5]), 5.0 days; in the data set on HCT116 tumors [2] (setting [4]), 3.5 days.
